Reference: patent US11780821B2, “Inhibitors of fibroblast activation protein” (Praxis Biotech LLC, priority 2017, dated 2023)

Biological target: T1, recombinant mouse FAPα (rmFAPα) (Mus musculus, UniProt P97321)
T1 construct: purchased R&S system (so in the source)
T1 sequence (P97321 1-761): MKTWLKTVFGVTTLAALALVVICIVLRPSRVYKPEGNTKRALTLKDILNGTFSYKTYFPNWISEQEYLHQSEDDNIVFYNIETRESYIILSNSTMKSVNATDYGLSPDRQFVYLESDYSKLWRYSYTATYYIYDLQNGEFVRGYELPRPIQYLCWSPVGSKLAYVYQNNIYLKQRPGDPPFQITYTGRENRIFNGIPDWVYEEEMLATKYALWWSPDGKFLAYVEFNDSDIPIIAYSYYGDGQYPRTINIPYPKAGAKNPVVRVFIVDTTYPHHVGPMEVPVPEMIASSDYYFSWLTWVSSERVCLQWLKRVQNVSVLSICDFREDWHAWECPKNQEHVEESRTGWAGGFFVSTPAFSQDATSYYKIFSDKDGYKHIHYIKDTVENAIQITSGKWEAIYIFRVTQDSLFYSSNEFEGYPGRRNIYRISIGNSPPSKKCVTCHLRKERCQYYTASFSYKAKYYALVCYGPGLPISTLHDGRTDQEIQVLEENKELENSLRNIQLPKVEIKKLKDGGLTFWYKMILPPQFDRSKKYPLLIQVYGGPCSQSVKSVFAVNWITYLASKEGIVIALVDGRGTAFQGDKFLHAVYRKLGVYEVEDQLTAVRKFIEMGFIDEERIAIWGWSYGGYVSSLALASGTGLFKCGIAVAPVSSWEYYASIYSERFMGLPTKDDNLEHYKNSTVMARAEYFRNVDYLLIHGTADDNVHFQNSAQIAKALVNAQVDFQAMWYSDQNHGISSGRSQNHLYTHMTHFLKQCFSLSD
Assay: FAPα enzymatic exopeptidase (dipeptidase) activity assay
Type: biochemical
Details: 1 μM test compound; Z-Gly-Pro-AMC substrate; read-out: rmFAPα (% exo inh @ 1 μM)
Procedure: FAPα enzymatic exopeptidase (dipeptidase) activity assay. […] 7-Amino-4-Methylcoumarin (AMC) release was detected by measuring fluorescence at Ex/Em 380/460 nm using a Multifunction Microplate Reader (Synergy 4, Biotek). All measurements were carried out in duplicate. […] For the calculations, the average measurements from reactions containing only vehicle and substrate, without enzyme, were used as a blank and were subtracted from the rest of the measurements. Percent inhibition was calculated using the average measurements from reactions containing vehicle, enzyme, and substrate as the maximum of enzymatic activity. Measurements were performed as a single point.

## N#C[C@@H]1CC(F)(F)CN1C(=O)CNC(=O)c1c[nH]c(=O)c2ccccc12 [Example 1, (S)—N-(2-(2-cyano-4,4-difluoropyrrolidin-1-yl)-2-oxoethyl)-1-oxo-1,2-dihydroisoquinoline-4-carboxamide]
  inhibition at 1 µM: > 50%
